{"source": "patent US5130462A", "about": "“Cyclobutane derivatives” (E. R. Squibb & Sons, Inc., priority 1991, dated 1992)", "key": {"HSV-2": {"system": "HSV-2", "test": "HSV-2 plaque reduction assay in WI-38 cells", "format": "cell-based, herpes simplex virus type 2, strain 186", "conditions": "Human alphaherpesvirus 2, WI-38, 96 h, read-out: ID50 HSV-2", "method": "(§1) Assays were performed in cell culture systems to determine the concentrations of compounds that are effective in preventing several kinds of viral infections.\n(§2) HSV-1 (herpes simplex virus type 1, strain Schooler), HSV-2 (herpes simplex virus type 2, strain 186), VZV (varicella zoster virus, strain ELLEN), HCMV (human cytomegalovirus, strain AD 169), MuLV (murine leukemia virus, strain CAS), HIV (human immunodeficiency virus, strain HTLV-IIIB).\n(§3) HSV-1, HSV-2, HCMV, and VZV antiviral assays: Virus was adsorbed to WI-38 cell culture monolayers in 6 well culture plates (Costar, Cambridge, Mass.) for 1 hour prior to addition of maintenance medium containing duplicate dilutions of the test compound. Inhibition of plaque development was evaluated on fixed and stained monolayers after 4 days incubation at 37° C. for HSV-1 and HSV-2 and after 6-7 days incubation at 37° C. for HCMV and VZV. ID50 values were determined from the drug concentration which conferred at least a 50% plaque reduction compared to virus controls."}, "HCMV": {"system": "HCMV", "test": "HCMV plaque reduction assay in WI-38 cells", "format": "cell-based, human cytomegalovirus, strain AD 169", "conditions": "Human betaherpesvirus 5, 6-7 days, 37° C, read-out: ID50 HCMV", "method": "as §1, §2, §3"}, "HIV": {"system": "HIV", "test": "HIV antiviral assay, inhibition of CPE in CEM cells (XTT-PMS)", "format": "cell-based, strain HTLV-IIIB", "conditions": "Human immunodeficiency virus 1, CCRF-CEM, 168 h, 7 days, read-out: ID50 HIV", "method": "as §1, §2\nHIV antiviral assay: Suspensions of CEM(Nara and Fischinger, Nature, 332:469, 1988) cells were infected at a multiplicity of infection (e.g. virus/cell) of 0.12 with HIV (strain HTLV-III B). […] Following incubation, viable cell numbers were counted in each well using a colorimetric assay following incubation of cells with XTT-PMS solution (XTT tetrazolium reagent plus phenazine methosulfate PMS).\nPercent reduction of viral cytopathic effect (CPE) in drug treated compared to untreated virus infected cells, and percent reduction of cell viability in drug treated uninfected cells compared to untreated controls were calculated and plotted versus the drug concentrations tested. From these plots, the IDso (the minimum drug concentration that inhibits CPE by 50%) for each drug was calculated."}, "VZV": {"system": "VZV", "test": "VZV plaque reduction assay in WI-38 cells", "format": "cell-based, varicella zoster virus, strain ELLEN", "conditions": "Human alphaherpesvirus 3, 6-7 days, 37° C, read-out: ID50 VZV", "method": "as §1, §2, §3"}}, "data": [{"compound": "O=c1[nH]c(=O)n([C@H]2C[C@@H](CO)[C@@H]2CO)cc1I", "note": "(relative stereo) [(1α,2β,3α)-1-[2,3-Bis(hydroxymethyl)cyclobutyl]-5-iodo-2,4(1H,3H)-pyrimidinedione]", "values": [{"measurement": "IC50", "setting": "HSV-2", "value": "> 284", "unit": "µM"}, {"measurement": "IC50", "setting": "HCMV", "value": "> 284", "unit": "µM"}]}, {"compound": "Nc1ncnc2c1ncn2[C@H]1C[C@@H](CO)[C@@H]1CO", "note": "(relative stereo) [(1α,2β,3α)-3-(6-Amino-9H-purin-9-yl)-1,2-cyclobutanedimethanol]", "values": [{"measurement": "IC50", "setting": "HIV", "value": 6.8, "unit": "µM"}]}, {"compound": "Nc1nc2c(nnn2[C@H]2C[C@@H](CO)[C@@H]2CO)c(=O)[nH]1", "note": "(relative stereo) [(1α,2β,3α)-5-Amino-3-[2,3-bis(hydroxymethyl)cyclo-butyl]-3,6-dihydro-7H-1,2,3-triazolo[4,5-d]-pyrimidin-7-one]", "values": [{"measurement": "IC50", "setting": "VZV", "value": "3.8 to 38", "unit": "µM"}]}, {"compound": "Nc1nc2c(ncn2[C@H]2C[C@@H](CO)[C@@H]2CO)c(=O)[nH]1", "note": "(relative stereo) [(1α,2β,3α)-9-[2,3-Bis(hydroxymethyl)cyclobutyl]guanine]", "values": [{"measurement": "IC50", "setting": "HIV", "value": 30, "unit": "µM"}]}, {"compound": "O=c1[nH]c(=O)n([C@H]2C[C@@H](CO)[C@@H]2CO)cc1/C=C/Br", "note": "(relative stereo) [[1α(E),2β,3α]-1-[2,3-Bis(hydroxymethyl)-cyclobutyl]-5-(2-bromoethenyl)-2,4(1H,3H)-pyrimidinedione]", "values": [{"measurement": "IC50", "setting": "HSV-2", "value": "> 302", "unit": "µM"}, {"measurement": "IC50", "setting": "HCMV", "value": "> 302", "unit": "µM"}]}]}
